Assay results: patent US20240360165A1, “INHIBITORS OF CYCLIN DEPENDENT KINASE 7 (CDK7)” (Syros Pharmaceuticals, Inc., priority 2016, published 2024)
Read-outs that look alike come from different tables or passages of the source.

What was measured:
CDK2/Cyclin E1 complex = CDK2/Cyclin E1 complex (Homo sapiens, UniProt P24941); experiment: CDK2 inhibition assay (Caliper/LabChip EZ Reader kinase assay); type: biochemical; details: Table 1, CDK2/Cyclin E1 0.5 nM, ATP 2 mM, 35 min at 27° C.
Procedure, shortened: (§1)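 Caliper/LabChip EZ Reader mobility-shift assays. CDK9/Cyclin T1 at 8 nM with 2 μM 5-FAM-CDK9tide peptide and 10 mM MgCl2; CDK2/Cyclin E1 at 0.5 nM with 2 μM 5-FAM-CDK7tide and 2 mM MgCl2.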

[1] = molecular target: CDK7/Cyclin H/MAT1 complex (Homo sapiens, UniProt P50613); experiment: CDK7 inhibition assay (Caliper/LabChip EZ Reader kinase assay); type: biochemical; details: Table 1, CDK7/Cyclin H/MAT1 6 nM, ATP 2 mM, 35 min at 27° C.
CDK7/Cyclin H/MAT1 complex, sequence (P50613 whole entry, species assumed): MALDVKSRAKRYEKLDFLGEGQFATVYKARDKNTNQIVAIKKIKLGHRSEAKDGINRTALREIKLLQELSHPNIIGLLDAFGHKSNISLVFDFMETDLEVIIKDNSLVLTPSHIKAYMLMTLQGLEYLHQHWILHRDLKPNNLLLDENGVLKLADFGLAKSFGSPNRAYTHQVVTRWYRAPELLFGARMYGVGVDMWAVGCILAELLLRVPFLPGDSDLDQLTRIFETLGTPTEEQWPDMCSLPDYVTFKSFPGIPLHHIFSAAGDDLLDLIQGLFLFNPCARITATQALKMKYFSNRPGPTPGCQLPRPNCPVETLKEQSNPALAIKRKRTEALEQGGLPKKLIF
CDK7/Cyclin H/MAT1 complex, sequence (P51946 whole entry partner, species assumed): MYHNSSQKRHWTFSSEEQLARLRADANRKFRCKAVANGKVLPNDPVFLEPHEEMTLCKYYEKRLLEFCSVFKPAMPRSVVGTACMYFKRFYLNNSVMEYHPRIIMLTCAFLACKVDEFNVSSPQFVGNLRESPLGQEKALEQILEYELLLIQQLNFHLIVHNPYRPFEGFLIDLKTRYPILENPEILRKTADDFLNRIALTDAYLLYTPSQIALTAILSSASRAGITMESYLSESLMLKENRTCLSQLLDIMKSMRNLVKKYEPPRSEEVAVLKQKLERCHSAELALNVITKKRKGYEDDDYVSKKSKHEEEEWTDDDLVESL
CDK7/Cyclin H/MAT1 complex, sequence (P51948 whole entry partner, species assumed): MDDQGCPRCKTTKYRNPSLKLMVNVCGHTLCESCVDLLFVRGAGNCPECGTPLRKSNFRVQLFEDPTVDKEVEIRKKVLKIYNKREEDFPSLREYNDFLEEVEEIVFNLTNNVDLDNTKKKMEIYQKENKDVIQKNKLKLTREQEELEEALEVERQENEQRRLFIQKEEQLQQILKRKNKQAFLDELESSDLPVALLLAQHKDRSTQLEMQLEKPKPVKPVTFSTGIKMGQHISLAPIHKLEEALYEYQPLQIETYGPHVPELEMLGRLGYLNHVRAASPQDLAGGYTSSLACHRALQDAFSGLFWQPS
Procedure, shortened: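 A Perkin Elmer Caliper/LabChip EZ Reader (Waltham, MA) platform served as the basis for this CDK7 kinase inhibition assay. The work was carried out by Biortus Biosciences, located in Jiangyin, Jiangsu Province, P.R. of China. Each CDK studied had its own kinase assay, and compounds were evaluated for their ability to block CDK7 activity.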

CDK9/Cyclin T1 complex = CDK9/Cyclin T1 complex (Homo sapiens, UniProt P50750); experiment: CDK9 inhibition assay (Caliper/LabChip EZ Reader kinase assay); type: biochemical; details: Table 1, CDK9/Cyclin T1 8 nM, ATP 2 mM, 15 min at 27° C.
CDK9/Cyclin T1 complex, sequence (P50750 whole entry, species assumed): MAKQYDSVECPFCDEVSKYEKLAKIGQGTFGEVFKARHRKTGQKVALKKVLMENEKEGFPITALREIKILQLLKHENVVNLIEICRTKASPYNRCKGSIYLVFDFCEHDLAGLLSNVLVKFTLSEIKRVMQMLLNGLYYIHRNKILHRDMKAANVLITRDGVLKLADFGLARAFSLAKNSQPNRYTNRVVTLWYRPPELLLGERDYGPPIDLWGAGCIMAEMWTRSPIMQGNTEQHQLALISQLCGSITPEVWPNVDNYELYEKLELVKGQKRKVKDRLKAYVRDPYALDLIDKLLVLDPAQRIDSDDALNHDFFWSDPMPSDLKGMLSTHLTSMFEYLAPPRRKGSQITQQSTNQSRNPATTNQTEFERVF
CDK9/Cyclin T1 complex, sequence (O60563 whole entry partner, species assumed): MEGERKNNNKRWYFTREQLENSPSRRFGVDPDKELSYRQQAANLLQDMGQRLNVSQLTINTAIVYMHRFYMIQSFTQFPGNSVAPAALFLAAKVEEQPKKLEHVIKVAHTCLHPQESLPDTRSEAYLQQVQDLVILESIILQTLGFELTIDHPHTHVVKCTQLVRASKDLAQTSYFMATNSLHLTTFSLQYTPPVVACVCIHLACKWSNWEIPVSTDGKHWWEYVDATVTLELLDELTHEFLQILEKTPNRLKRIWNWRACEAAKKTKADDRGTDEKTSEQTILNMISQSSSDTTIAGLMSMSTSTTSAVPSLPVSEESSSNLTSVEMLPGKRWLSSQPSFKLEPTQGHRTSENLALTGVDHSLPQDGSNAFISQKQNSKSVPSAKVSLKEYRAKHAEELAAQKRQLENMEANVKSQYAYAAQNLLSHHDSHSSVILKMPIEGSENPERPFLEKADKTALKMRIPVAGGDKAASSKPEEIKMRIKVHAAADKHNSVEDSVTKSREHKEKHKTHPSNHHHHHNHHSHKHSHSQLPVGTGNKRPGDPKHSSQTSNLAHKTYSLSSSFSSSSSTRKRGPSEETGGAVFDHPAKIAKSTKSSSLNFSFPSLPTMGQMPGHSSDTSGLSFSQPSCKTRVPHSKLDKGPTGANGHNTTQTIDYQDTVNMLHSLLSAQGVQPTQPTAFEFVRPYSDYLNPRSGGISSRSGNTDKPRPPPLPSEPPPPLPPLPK
Procedure, shortened: as §1

HCC70 cells = experiment: Inhibition of proliferation of HCC70 cells (CyQUANT Direct Cell Proliferation Assay, 72 hour); type: cell-based, human; details: read-out: Inhibition of Proliferation of HCC70 Cells (calculated IC50)
Experimental: HCC70 cells are a cell line derived from human triple negative breast cancer. […] Known CDK inhibitors dinaciclib or N-((1S,3R)-3-((5-chloro-4-(1H-indol-3-yl) pyrimidin-2-yl)amino)cyclohexyl)-5-((E)-4-(dimethylamino)but-2-enamido)picolinamide and triptolide were used as positive controls. […] The cells were cultured at 37° C. in a humidified chamber in the presence of 5% CO2. Proliferation assays were conducted over a 72 hour time period. CyQUANT® Direct Cell Proliferation Assay (Life Technologies, Chicago, IL USA) was used to assess the anti-proliferative effects of the compounds following manufacturer's directions and utilizing the reagents supplied with the CyQUANT® Direct Cell kit.

[2] = molecular target: T1, CDK12 (aa686-1082)/Cyclin K complex (Homo sapiens, UniProt Q9NYV4); experiment: CDK12 inhibition assay (Caliper/LabChip EZ Reader kinase assay); type: biochemical; details: Table 1, CDK12 (aa686-1082)/Cyclin K 50 nM, ATP 2 mM, 3 hr at 27° C.
T1 construct: CDK12 (aa686-1082)/Cyclin K complex
T1 sequence (Q9NYV4 686-1082, species assumed): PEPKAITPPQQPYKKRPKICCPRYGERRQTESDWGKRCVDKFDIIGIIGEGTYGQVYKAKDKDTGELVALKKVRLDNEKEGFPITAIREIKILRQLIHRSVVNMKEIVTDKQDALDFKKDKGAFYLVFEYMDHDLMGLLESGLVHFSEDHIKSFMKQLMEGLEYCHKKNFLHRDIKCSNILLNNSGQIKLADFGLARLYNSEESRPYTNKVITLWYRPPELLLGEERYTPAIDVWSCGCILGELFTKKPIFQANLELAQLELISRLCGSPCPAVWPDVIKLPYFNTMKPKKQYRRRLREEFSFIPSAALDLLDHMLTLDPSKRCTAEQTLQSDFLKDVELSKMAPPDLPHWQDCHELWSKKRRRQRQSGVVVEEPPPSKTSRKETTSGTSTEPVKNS
T1 sequence (O75909 whole entry partner, species assumed, the tested form may be a part): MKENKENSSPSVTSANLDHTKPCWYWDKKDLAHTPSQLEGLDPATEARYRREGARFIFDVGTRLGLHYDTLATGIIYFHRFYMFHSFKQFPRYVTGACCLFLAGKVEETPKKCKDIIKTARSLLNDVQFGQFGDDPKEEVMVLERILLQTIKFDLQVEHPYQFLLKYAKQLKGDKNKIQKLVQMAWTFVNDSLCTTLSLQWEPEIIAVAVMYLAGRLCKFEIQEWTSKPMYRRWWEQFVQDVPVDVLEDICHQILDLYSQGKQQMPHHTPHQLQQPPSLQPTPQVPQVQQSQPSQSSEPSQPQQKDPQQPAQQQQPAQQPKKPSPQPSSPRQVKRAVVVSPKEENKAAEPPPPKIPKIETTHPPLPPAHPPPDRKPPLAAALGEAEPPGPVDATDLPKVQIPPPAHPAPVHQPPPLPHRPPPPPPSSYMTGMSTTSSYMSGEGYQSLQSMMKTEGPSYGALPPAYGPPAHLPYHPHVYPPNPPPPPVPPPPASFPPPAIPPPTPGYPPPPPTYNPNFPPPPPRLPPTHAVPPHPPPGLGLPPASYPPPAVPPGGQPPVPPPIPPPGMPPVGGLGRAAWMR

| Structure (SMILES) | IC50 (CDK2/Cyclin E1 complex) | IC50 [1] | IC50 (CDK9/Cyclin T1 complex) | IC50 (HCC70 cells; Homo sapiens, HCC70, 72 h) | IC50 [2] | IC50 (HCC70 cells) | IC50 (CDK2/Cyclin E1 complex; listed as 128) | IC50 ([1]; listed as 128) | IC50 (CDK9/Cyclin T1 complex; listed as 128) | IC50 ([2]; listed as 128) |
| --- | --- | --- | --- | --- | --- | --- | --- | --- | --- | --- |
| N#Cc1ccc2c(-c3nc(N[C@H]4CCC5(CCC5)NC4)ncc3C(F)(F)F)c[nH]c2c1 (single isomer, unassigned) [Compound 378] | > 5000 nM | 20 to 200 nM | > 5000 nM | 1000 to 5000 nM | > 5000 nM | – | – | – | – | – |
| OCc1ncccc1-c1ccc2c(-c3nc(N[C@H]4CCCNC4)ncc3C(F)(F)F)c[nH]c2c1 [Compound 323] | 200 to 5000 nM | < 20 nM | > 5000 nM | – | 200 to 5000 nM | 100 to 1000 nM | – | – | – | – |
| O=C(c1ccc2c(-c3nc(N[C@H]4CCCNC4)ncc3C(F)(F)F)c[nH]c2c1)N1CC[C@@](O)(C(F)(F)F)C1 (single isomer, unassigned) [Compound 300] | 200 to 5000 nM | < 20 nM | 200 to 5000 nM | 100 to 1000 nM | 200 to 5000 nM | – | – | – | – | – |
| CC(=O)c1ccc2c(-c3nc(N[C@H]4CCCNC4)ncc3C(F)(F)F)c[nH]c2c1 [Compound 359, 1-[3-[2-[[(3S)-3-piperidyl]amino]-5-(trifluoromethyl)pyrimidin-4-yl]-1H-indol-6-yl]ethanone] | 200 to 5000 nM | < 20 nM | 200 to 5000 nM | < 100 nM | 200 to 5000 nM | – | – | – | – | – |
| FC(F)Sc1ccc2c(-c3nc(N[C@H]4CCCNC4)ncc3C(F)(F)F)c[nH]c2c1 [Compound 374, 4-[6-(difluoromethylsulfanyl)-1H-indol-3-yl]-N-[(3S)-3-piperidyl]-5-(trifluoromethyl) pyrimidin-2-amine] | 200 to 5000 nM | < 20 nM | 200 to 5000 nM | < 100 nM | 20 to 200 nM | – | – | – | – | – |
| FC(F)(F)Sc1cnc(NC2CCCNC2)nc1-c1c[nH]c2ccccc12 (stereo not shown) [Compound 305, 4-(1H-indol-3-yl)-N-(piperidin-3-yl)-5-((trifluoromethyl)thio)pyrimidin-2-amine] | 200 to 5000 nM | < 20 nM | 200 to 5000 nM | 1000 to 5000 nM | 200 to 5000 nM | – | – | – | – | – |
| CC1(C)CC[C@H](Nc2ncc(C(F)(F)F)c(-c3c[nH]c4cc(C#N)ccc34)n2)CN1 [Compound 350, (S)-3-(2-((6,6-dimethylpiperidin-3-yl)amino)-5-(trifluoromethyl)pyrimidin-4-yl)-1H-indole-6-carbonitrile] | > 5000 nM | 20 to 200 nM | > 5000 nM | 100 to 1000 nM | 200 to 5000 nM | – | – | – | – | – |
| CN(C)S(=O)(=O)c1ccc2c(-c3nc(N[C@H]4CCCNC4)ncc3C(F)(F)F)c[nH]c2c1 [Compound 357, N,N-dimethyl-3-[2-[[(3S)-3-piperidyl]amino]-5-(trifluoromethyl)pyrimidin-4-yl]-1H-indole-6-sulfonamide] | 200 to 5000 nM | < 20 nM | 200 to 5000 nM | 1000 to 5000 nM | 200 to 5000 nM | – | – | – | – | – |
| N#Cc1ccc2c(-c3nc(N[C@@H]4CNC[C@@H](F)C4)ncc3C(F)(F)F)c[nH]c2c1 [Compound 368, 3-[2-[[(3S,5S)-5-fluoro-3-piperidyl]amino]-5-(trifluoromethyl)pyrimidin-4-yl]-1H-Indole-6-carbonitrile] | > 5000 nM | 20 to 200 nM | > 5000 nM | 1000 to 5000 nM | 200 to 5000 nM | – | > 5000 nM | > 5000 nM | > 5000 nM | > 5000 nM |
| CC1CCNCC1Nc1ncc(C(F)(F)F)c(-c2c[nH]c3ccccc23)n1 (single isomer, unassigned) [Compound 373] | > 5000 nM | 20 to 200 nM | > 5000 nM | – | > 5000 nM | 1000 to 5000 nM | – | – | – | – |
| OCc1cncc(-c2ccc3c(-c4nc(N[C@H]5CCCNC5)ncc4C(F)(F)F)c[nH]c3c2)c1 [Compound 318] | 200 to 5000 nM | < 20 nM | 200 to 5000 nM | – | 200 to 5000 nM | 100 to 1000 nM | – | – | – | – |
| N#Cc1ccc2c(-c3nc(N[C@@H]4CCC5(CCC5)NC4)ncc3C(F)(F)F)c[nH]c2c1 (single isomer, unassigned) [Compound 377] | > 5000 nM | < 20 nM | 200 to 5000 nM | 100 to 1000 nM | 200 to 5000 nM | – | – | – | – | – |
| CC[C@]1(O)CCN(C(=O)c2ccc3c(-c4nc(N[C@H]5CCCNC5)ncc4C(F)(F)F)c[nH]c3c2)C1 (single isomer, unassigned) [Compound 347] | > 5000 nM | 20 to 200 nM | > 5000 nM | 100 to 1000 nM | 200 to 5000 nM | – | – | – | – | – |
| CNC(=O)c1cccc2c(-c3nc(N[C@H]4CCCNC4)ncc3C(F)(F)F)cn(COC)c12 [Compound 304] | > 5000 nM | > 5000 nM | > 5000 nM | – | > 5000 nM | 1000 to 5000 nM | – | – | – | – |
| CP(C)(=O)c1cccc2c(-c3nc(N[C@H]4CCCNC4)ncc3C(F)(F)F)c[nH]c12 (single isomer, unassigned) [Compound 353] | 200 to 5000 nM | < 20 nM | > 5000 nM | < 100 nM | 200 to 5000 nM | – | – | – | – | – |
| Cc1ccncc1-c1ccc2c(-c3nc(NC4CCCNC4)ncc3C(F)(F)F)c[nH]c2c1 (stereo not shown) [Compound 336] | 200 to 5000 nM | < 20 nM | 200 to 5000 nM | < 100 nM | 200 to 5000 nM | – | – | – | – | – |
| Cc1noc(C)c1-c1ccc2c(-c3nc(N[C@H]4CCCNC4)ncc3C(F)(F)F)c[nH]c2c1 [Compound 330] | 200 to 5000 nM | < 20 nM | 200 to 5000 nM | – | 200 to 5000 nM | < 100 nM | – | – | – | – |
| CCc1cnc(N[C@H]2CCCNC2)nc1-c1c[nH]c2c(F)c(C#N)ccc12 [Compound 360, 3-[5-ethyl-2-[[(3S)-3-piperidyl]amino]pyrimidin-4-yl]-7-fluoro-1H-indole-6-carbonitrile] | > 5000 nM | 20 to 200 nM | > 5000 nM | 1000 to 5000 nM | > 5000 nM | – | – | – | – | – |
| Cc1noc([C@H]2CC[C@H](Nc3ncc(C(F)(F)F)c(-c4c[nH]c5cc(C#N)ccc45)n3)CN2)n1 [Compound 358] | > 5000 nM | 20 to 200 nM | > 5000 nM | 100 to 1000 nM | > 5000 nM | – | – | – | – | – |
| COC1CCN(C(=O)c2ccc3c(-c4nc(N[C@H]5CCCNC5)ncc4C(F)(F)F)c[nH]c3c2)C1 (single isomer, unassigned) [Compound 281] | 200 to 5000 nM | < 20 nM | 200 to 5000 nM | 100 to 1000 nM | 200 to 5000 nM | – | – | – | – | – |
| CN(C)S(=O)(=O)c1cccc2c(-c3nc(NC4CCCNC4)ncc3C(F)(F)F)c[nH]c12 (stereo not shown) [Compound 371] | 200 to 5000 nM | < 20 nM | 200 to 5000 nM | < 100 nM | 200 to 5000 nM | – | – | – | – | – |
| CC[C@@]1(O)CCN(C(=O)c2ccc3c(-c4nc(N[C@H]5CCCNC5)ncc4C(F)(F)F)c[nH]c3c2)C1 (single isomer, unassigned) [Compound 309] | > 5000 nM | 20 to 200 nM | > 5000 nM | 1000 to 5000 nM | 200 to 5000 nM | – | – | – | – | – |
| CC(=O)NCc1cccc(-c2ccc3c(-c4nc(N[C@H]5CCCNC5)ncc4C(F)(F)F)c[nH]c3c2)c1 [Compound 338] | 200 to 5000 nM | 20 to 200 nM | 200 to 5000 nM | – | 200 to 5000 nM | 100 to 1000 nM | – | – | – | – |
| O=C1CCc2ccc(-c3ccc4c(-c5nc(N[C@H]6CCCNC6)ncc5C(F)(F)F)c[nH]c4c3)cc2N1 [Compound 334] | 200 to 5000 nM | 20 to 200 nM | 200 to 5000 nM | – | 200 to 5000 nM | 100 to 1000 nM | – | – | – | – |
| CCP(=O)(CC)c1ccc2c(-c3nc(N[C@H]4CCCNC4)ncc3C(F)(F)F)c[nH]c2c1 [Compound 379] | > 5000 nM | 20 to 200 nM | > 5000 nM | 1000 to 5000 nM | > 5000 nM | – | – | – | – | – |
| CP(C)(=O)c1ccc2c(-c3nc(N[C@H]4CCCNC4)ncc3C(F)(F)F)c[nH]c2c1 [Compound 354] | > 5000 nM | 20 to 200 nM | > 5000 nM | 1000 to 5000 nM | 200 to 5000 nM | – | – | – | – | – |
| O=C1CCN(C(=O)c2ccc3c(-c4nc(N[C@H]5CCCNC5)ncc4C(F)(F)F)c[nH]c3c2)C1 [Compound 302, 1-[3-[2-[[(3S)-3-piperidyl]amino]-5-(trifluoromethyl)pyrimidin-4-yl]-1H-indole-6-carbonyl] pyrrolidin-3-one] | 200 to 5000 nM | 20 to 200 nM | 200 to 5000 nM | 100 to 1000 nM | 200 to 5000 nM | – | – | – | – | – |
